Results from EP0621779B1, “INDOMETHACIN LYSINATE FOR THERAPEUTIC USE IN OPHTHALMOLOGY” (JUNG, Jean, priority 1992, dated 1993).

Experiments:
[1] = Ocular passage / ocular bioavailability after instillation of eye drops; type: in vivo
Method: Les biodisponibilités oculaires des deux formes pharmaceutiques sont équivalentes : le passage obtenu avec la solution à 0,142 % d'indométacine (du lysinate d'indométacine) est similaire à celui obtenu avec la suspension à 1 % (INDOCID®). Cette dernière constatation permet d'affirmer que le passage des collyres à travers les différentes barrières oculaires s'effectue bien par la fraction soluble et non par endocytose de microparticules.
Il faut noter également qu'au temps de prélèvement de 2 h les concentrations d'indométacine mesurées dans l'oeil traité par la solution de lysinate d'indométacine à 0,142 % d'indométacine sont supérieures à celles mesurées dans l'oeil traité par la suspension à 1 % d'indométacine; cela peut être dû à une élimination plus rapide de la forme suspension par le fluide lacrymal en raison de l'irritation oculaire provoquée par la taille des particules.
Elle augmente ensuite régulièrement pour atteindre sa valeur maximale environ 30 minutes après l'instillation (3 à 5 % de la dose instillée) et diminue finalement.

[2] = Solubility in solvents (physico-chemical characters); type: physicochemical
Excerpt: Les données des études spectrales (IR, UV, RNM) sont conformes à la structure définie.

[3] = Stability of the isolated salt (storage; dry heat sterilisation of the powder); type: physicochemical; conditions: poudre
Excerpt: Dans un premier temps, la stabilité du lysinate d'indométacine en fonction de la température a été prouvée et les conditions de température et de durée utilisées pour la stérilisation ont été définis. Dans un deuxième temps, une étude microbiologique a permis de vérifier l'efficacité de la méthode.

Row | SMILES | concentration de l'indométacine dans l'humeur aqueuse ([1]; 10 minutes après l'instillation) | Tmax ([1]; in vivo, topical or ocular, humeur aqueuse, read-out: time after instillation to reach valeur maximale dans l'humeur aqueuse (converted)) [min] | solubilité ([2]; dans l'acétone) | solubilité ([2]; dans l'acétonitrile) | solubilité ([2]; dans l'eau) | solubilité ([2]; dans l'éthanol) | solubilité ([2]; dans l'éther) | solubilité ([2]; dans le chloroforme) | solubilité ([2]; dans le dichlorométhane) | solubilité ([2]; dans le méthanol) | stabilité dans le temps ([3]; conditions classiques de conservation) | stabilité à la stérilisation par la chaleur sèche ([3]; température supérieure à 170°C) | passage oculaire (biodisponibilité oculaire) ([1]; solution à 0,142 % d'indométacine, compared with suspension à 1 % (INDOCID®)) | concentrations d'indométacine mesurées dans l'oeil traité ([1]; temps de prélèvement de 2 h, solution à 0,142 % d'indométacine compared with suspension à 1 % d'indométacine)
1 | COc1ccc2c(c1)c(CC(=O)O)c(C)n2C(=O)c1ccc(Cl)cc1 [indométacine, reference compound] | pratiquement nulle | ~30 |  |  |  |  |  |  |  |  |  |  |  | 
2 | COc1ccc2c(c1)c(CC(=O)O)c(C)n2C(=O)c1ccc(Cl)cc1 [lysinate d'indométacine] |  |  | pratiquement insoluble | totalement insoluble | soluble | totalement insoluble | totalement insoluble | pratiquement insoluble | pratiquement insoluble | soluble | stables dans le temps | sans être dégradé | similaire | supérieures
